Test results reported in US8765786B2, “1-substituted indazole derivative” (Dainippon Sumitomo Pharma Co., Ltd., priority 2012, dated 2014).

Each molecule was assayed against T1, human α7 nAChR (Homo sapiens, UniProt P36544) (assay: Evaluation of PAM activity with human α7 nACh receptor stably expressing cells (aequorin luminescence, FDSS7000)). Details: test compound 10 μmol/L; ACh added at EC20; ratio of RLU (Max-Min) of test wells to control wells.
T1 construct: expressed in transfected cells; host or cells: GH4C1 cells derived from rat pituitary (ATCC CCL-82.2)
Assay type: cell-based
Summary of the method: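 Rat pituitary GH4C1 cells stably expressing human α7 nAChR and aequorin, loaded 4 h at room temperature with 4 μmol/L substrate, in Hanks/20 mM HEPES pH 7.4. After compound then ACh addition, 465 nm luminescence recorded 138 s; PAM activity is RLU (Max-Min) ratio to control wells.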

T1 sequence (P36544 23-502): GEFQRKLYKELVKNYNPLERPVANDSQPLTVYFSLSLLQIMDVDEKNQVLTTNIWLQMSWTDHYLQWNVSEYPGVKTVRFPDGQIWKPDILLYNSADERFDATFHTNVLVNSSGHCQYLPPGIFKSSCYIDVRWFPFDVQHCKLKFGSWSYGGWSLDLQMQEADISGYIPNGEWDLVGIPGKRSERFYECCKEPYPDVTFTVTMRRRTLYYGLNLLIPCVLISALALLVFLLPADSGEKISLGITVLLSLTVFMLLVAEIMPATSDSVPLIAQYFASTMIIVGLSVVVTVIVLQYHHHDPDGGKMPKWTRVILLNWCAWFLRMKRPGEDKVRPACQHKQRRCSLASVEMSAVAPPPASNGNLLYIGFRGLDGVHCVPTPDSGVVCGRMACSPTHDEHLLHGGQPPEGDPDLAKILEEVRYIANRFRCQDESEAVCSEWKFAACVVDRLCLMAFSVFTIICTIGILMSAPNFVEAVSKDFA

Row | Structure (SMILES) | α7PAM (%) @ 10 μmol/L [%]
1 | COCC1CCC(NC(=O)N2CCC(n3ncc4cc(OC(F)(F)F)ccc43)CC2)CC1 (stereo not shown) [Example 228] | 276
2 | COC(C)c1cccc2c1cnn2C1CCN(C(=O)NC2CCC(F)(F)CC2)CC1 (stereo not shown) [Example 231] | 647
3 | COC(C)c1c(C)ccc2c1cnn2C1CCN(C(=O)NC2CCC(F)(F)CC2)CC1 (stereo not shown) [Example 232] | 860
4 | COCC1CCC(NC(=O)N2CCC(n3ncc4cc(OC(C)C)ccc43)CC2)CC1 (stereo not shown) [Example 235] | 611
5 | COCC1CCC(NC(=O)N2CCC(n3ncc4cc(F)ccc43)CC2)CC1 (stereo not shown) [Example 236] | 331
6 | COCC1CCC(NC(=O)N2CCC(n3ncc4cc(Cl)ccc43)CC2)CC1 (stereo not shown) [Example 237] | 832
7 | COCC1CCC(NC(=O)N2CCC(n3ncc4cc(Br)ccc43)CC2)CC1 (stereo not shown) [Example 238] | 1031
8 | CCc1nn(C2CCN(C(=O)N[C@H]3CC[C@H](OC)CC3)CC2)c2ccc(OC)cc12 [Example 240] | 833
9 | COc1ccc2c(c1)c(C)nn2C1CCN(C(=O)N[C@H]2CC[C@H](OC)CC2)CC1 [Example 242] | 901
10 | COc1ccc2c(c1)c(C)nn2C1CCN(C(=O)NC2CCC(F)(F)CC2)CC1 [Example 243] | 842
11 | CCc1nn(C2CCN(C(=O)NC3CCOCC3)CC2)c2ccc(OC)cc12 [Example 244] | 324
12 | COC(C)c1ccc2c(cnn2C2CCN(C(=O)N[C@H]3CC[C@H](OC)CC3)CC2)c1 (stereo partly shown) [Example 245] | 182
13 | COC1CC1c1ccc2c(cnn2C2CCN(C(=O)N[C@H]3CC[C@H](OC)CC3)CC2)c1 (stereo partly shown) [Example 246] | 364
14 | COC(C)Cc1ccc2c(cnn2C2CCN(C(=O)N[C@H]3CC[C@H](OC)CC3)CC2)c1 (stereo partly shown) [Example 247] | 353
15 | COC(C)Cc1ccc2c(cnn2C2CCN(C(=O)NC3CCC(F)(F)CC3)CC2)c1 (stereo not shown) [Example 251] | 868
16 | CCc1ccc2c(cnn2C2CCN(C(=O)NC3CCC(F)(F)CC3)CC2)c1OC [Example 256] | 1668
17 | COc1ccc2c(c1)c(C1CC1)nn2C1CCN(C(=O)N[C@H]2CC[C@H](OC)CC2)CC1 [Example 257] | 801
18 | COc1ccc2c(c1)c(C1=CCOCC1)nn2C1CCN(C(=O)NC2CCC(F)(F)CC2)CC1 [Example 259] | 309
19 | COc1ccc2c(c1)c(C1=CCOCC1)nn2C1CCN(C(=O)N[C@H]2CC[C@H](OC)CC2)CC1 [Example 260] | 428
20 | COc1ccc2c(c1)c(C1CCOCC1)nn2C1CCN(C(=O)NC2CCC(F)(F)CC2)CC1 [Example 261] | 924

Row | Structure (SMILES) | α7PAM (%) @ 10 μmol/L [%]
21 | COc1ccc2c(c1)c(C1CCOCC1)nn2C1CCN(C(=O)N[C@H]2CC[C@H](OC)CC2)CC1 [Example 262] | 348
22 | COc1nn(C2CCN(C(=O)NC3CCOCC3)CC2)c2ccc(OC(F)(F)F)cc12 [Example 264] | 263
23 | COc1nn(C2CCN(C(=O)NC3CCOCC3)CC2)c2ccc(C(F)(F)F)cc12 [Example 266] | 448
24 | CCOc1nn(C2CCN(C(=O)NC3CCOCC3)CC2)c2ccc(C(F)(F)F)cc12 [Example 267] | 292
25 | COc1nn(C2CCN(C(=O)NC3CCC(F)(F)CC3)CC2)c2ccc(C)cc12 [Example 270] | 364
26 | CCOc1c(C)ccc2c1cnn2C1CCN(C(=O)NC2CCOCC2)CC1 [Example 273] | 341
27 | CCOc1c(CC)ccc2c1cnn2C1CCN(C(=O)NC2CCOCC2)CC1 [Example 274] | 618
28 | COc1ccc2c(cnn2C2CCN(C(=O)NC3CCC(F)(F)CC3)CC2)c1C [Example 278] | 861
29 | CCOc1ccc2c(cnn2C2CCN(C(=O)NC3CCC(F)(F)CC3)CC2)c1C [Example 281] | 197
30 | CCOc1ccc2c(cnn2C2CCN(C(=O)N[C@H]3CC[C@H](OC)CC3)CC2)c1C [Example 282] | 215
31 | COc1c(Br)ccc2c1cnn2C1CCN(C(=O)N[C@H]2CC[C@H](OC)CC2)CC1 [Example 285] | 293
32 | CCc1c(OC)ccc2c1cnn2C1CCN(C(=O)NC2CCC(F)(F)CC2)CC1 [Example 287] | 645
33 | CCc1c(OC)ccc2c1cnn2C1CCN(C(=O)N[C@H]2CC[C@H](OC)CC2)CC1 [Example 288] | 218
34 | O=C(NC1CCC(F)(F)CC1)N1CCC(n2ncc3cc(OC(F)F)ccc32)CC1 [Example 290] | 1173
35 | O=C(NC1CCOCC1)N1CCC(n2ncc3cc(OC(F)F)ccc32)CC1 [Example 292] | 413
36 | Cc1c(OC(F)F)ccc2c1cnn2C1CCN(C(=O)NC2CCOCC2)CC1 [Example 294] | 523
37 | [2H]C([2H])([2H])O[C@H]1CC[C@H](NC(=O)N2CCC(n3ncc4cc(C)ccc43)CC2)CC1 [Example 295, 4-(5-methyl-1H-indazol-1-yl)-N-{trans-4-[(^2H3)methoxy]cyclohexyl}piperidine-1-carboxamide] | 1143
38 | [2H]C([2H])([2H])O[C@H]1CC[C@H](NC(=O)N2CCC(n3ncc4cc(C5CC5)ccc43)CC2)CC1 [Example 296, 4-(5-cyclopropyl-1H-indazol-1-yl)-N-{trans-4-[(^2H3)methoxy]cyclohexyl}piperidine-1-carboxamide] | 1268
39 | O=C(NC1CCOCC1)N1CCC(n2ncc3cc(C(F)(F)F)ccc32)CC1 [Example 297] | 340

Other lines, results leading:

Row | α7PAM (%) @ 10 μmol/L [%] | Structure (SMILES)
40 | 689 | O=C(NC1CCCC1)N1CCC(n2ncc3cc(OC(F)(F)F)ccc32)CC1 [Example 229]
41 | 307 | COC(C)c1c(C)ccc2c1cnn2C1CCN(C(=O)N[C@H]2CC[C@H](OC)CC2)CC1 (stereo partly shown) [Example 233]
42 | 824 | CCOc1ccc2c(cnn2C2CCN(C(=O)NC3CCC(COC)CC3)CC2)c1 (stereo not shown) [Example 234]
43 | 485 | COCCc1ccc2c(cnn2C2CCN(C(=O)NC3CCC(F)(F)CC3)CC2)c1 [Example 239]
44 | 358 | CCc1nn(C2CCN(C(=O)NC3CCC(F)(F)CC3)CC2)c2ccc(OC)cc12 [Example 241]
45 | 851 | COC1CC1c1ccc2c(cnn2C2CCN(C(=O)NC3CCC(F)(F)CC3)CC2)c1 (stereo not shown) [Example 248]
46 | 1215 | O=C(NC1CCC(F)(F)CC1)N1CCC(n2ncc3c(OC4CC4)cccc32)CC1 [Example 250]
47 | 364 | COCC(C)c1ccc2c(cnn2C2CCN(C(=O)NC3CCC(F)(F)CC3)CC2)c1 (stereo not shown) [Example 252]
48 | 181 | CCOc1nn(C2CCN(C(=O)NC3CCOCC3)CC2)c2ccc(OC(F)(F)F)cc12 [Example 265]
49 | 361 | COc1c(C)ccc2c1cnn2C1CCN(C(=O)NC2CCOCC2)CC1 [Example 268]
50 | 835 | CCOc1c(C)ccc2c1cnn2C1CCN(C(=O)NC2CCC(F)(F)CC2)CC1 [Example 269]
51 | 931 | CCOc1c(CC)ccc2c1cnn2C1CCN(C(=O)NC2CCC(F)(F)CC2)CC1 [Example 271]
52 | 1351 | Cc1c(C2CC2)ccc2c1cnn2C1CCN(C(=O)NC2CCC(F)(F)CC2)CC1 [Example 276]
53 | 185 | COc1ccc2c(cnn2C2CCN(C(=O)N[C@H]3CC[C@H](OC)CC3)CC2)c1C [Example 279]
54 | 299 | COc1ccc2c(cnn2C2CCN(C(=O)NC3CCC(F)(F)CC3)CC2)c1C1CC1 [Example 280]
55 | 1109 | COc1c(Br)ccc2c1cnn2C1CCN(C(=O)NC2CCC(F)(F)CC2)CC1 [Example 284]
56 | 825 | Cc1c(Br)ccc2c1cnn2C1CCN(C(=O)NC2CCC(F)(F)CC2)CC1 [Example 286]
57 | 255 | CCc1c(OC)ccc2c1cnn2C1CCN(C(=O)NC2CCOCC2)CC1 [Example 289]
58 | 525 | CO[C@H]1CC[C@H](NC(=O)N2CCC(n3ncc4c(C)c(OC(F)F)ccc43)CC2)CC1 [Example 293]

Same assay, conditions: test compound 10 μmol/L; ACh added at EC20; ratio of RLU (Max-Min) of test wells to control wells; read-out: α7PAM (%) @ 10 μmol/L

Row | activity at 10 µM [%] | Structure (SMILES)
59 | 621 | CO[C@H]1CC[C@H](NC(=O)N2CCC(n3ncc4cc(OC5CC5)ccc43)CC2)CC1 [Example 230, 4-[5-(cyclopropoxy)-1H-indazol-1-yl]-N-(trans-4-methoxycyclohexyl)piperidine-1-carboxamide]
60 | 749 | COc1c(C2CC2)ccc2c1cnn2C1CCN(C(=O)N[C@H]2CC[C@H](OC)CC2)CC1 [Example 263, 4-(5-cyclopropyl-4-methoxy-1H-indazol-1-yl)-N-(trans-4-methoxycyclohexyl)piperidine-1-carboxamide]
61 | 442 | CCOc1c(CC)ccc2c1cnn2C1CCN(C(=O)N[C@H]2CC[C@H](OC)CC2)CC1 [Example 272, 4-(4-ethoxy-5-ethyl-1H-indazol-1-yl)-N-(trans-4-methoxycyclohexyl)piperidine-1-carboxamide]
62 | 729 | CO[C@H]1CC[C@H](NC(=O)N2CCC(n3ncc4c(C)c(C5CC5)ccc43)CC2)CC1 [Example 277, 4-(5-cyclopropyl-4-methyl-1H-indazol-1-yl)-N-(trans-4-methoxycyclohexyl)piperidine-1-carboxamide]
63 | 845 | Cc1c(C2CC2)ccc2c1cnn2C1CCN(C(=O)NC2CCOCC2)CC1 [Example 283, 4-(5-cyclopropyl-4-methyl-1H-indazol-1-yl)-N-(tetrahydro-2H-pyran-4-yl)piperidine-1-carboxamide]
64 | 315 | O=C(NC1CCC1)N1CCC(n2ncc3cc(C(F)(F)F)ccc32)CC1 [Example 298, N-cyclobutyl-4-[5-(trifluoromethyl)-1H-indazol-1-yl]piperidine-1-carboxamide]
